This is an account of results in publication PMC7835950 (Frontiers in Chemistry, 2021).

The term Ki denotes a dissociation constant, usually derived from enzyme kinetics or from competition with a known ligand.

For one series, the target named is T1, OGDH (Rattus norvegicus, UniProt Q5XI78).
T1 construct: the tissue fractions with the complexes enriched to a degree allowing for a robust detection of the enzymatic activities, have been used; from tissue; host or cells: rat liver
T1 sequence (Q5XI78 41-1023): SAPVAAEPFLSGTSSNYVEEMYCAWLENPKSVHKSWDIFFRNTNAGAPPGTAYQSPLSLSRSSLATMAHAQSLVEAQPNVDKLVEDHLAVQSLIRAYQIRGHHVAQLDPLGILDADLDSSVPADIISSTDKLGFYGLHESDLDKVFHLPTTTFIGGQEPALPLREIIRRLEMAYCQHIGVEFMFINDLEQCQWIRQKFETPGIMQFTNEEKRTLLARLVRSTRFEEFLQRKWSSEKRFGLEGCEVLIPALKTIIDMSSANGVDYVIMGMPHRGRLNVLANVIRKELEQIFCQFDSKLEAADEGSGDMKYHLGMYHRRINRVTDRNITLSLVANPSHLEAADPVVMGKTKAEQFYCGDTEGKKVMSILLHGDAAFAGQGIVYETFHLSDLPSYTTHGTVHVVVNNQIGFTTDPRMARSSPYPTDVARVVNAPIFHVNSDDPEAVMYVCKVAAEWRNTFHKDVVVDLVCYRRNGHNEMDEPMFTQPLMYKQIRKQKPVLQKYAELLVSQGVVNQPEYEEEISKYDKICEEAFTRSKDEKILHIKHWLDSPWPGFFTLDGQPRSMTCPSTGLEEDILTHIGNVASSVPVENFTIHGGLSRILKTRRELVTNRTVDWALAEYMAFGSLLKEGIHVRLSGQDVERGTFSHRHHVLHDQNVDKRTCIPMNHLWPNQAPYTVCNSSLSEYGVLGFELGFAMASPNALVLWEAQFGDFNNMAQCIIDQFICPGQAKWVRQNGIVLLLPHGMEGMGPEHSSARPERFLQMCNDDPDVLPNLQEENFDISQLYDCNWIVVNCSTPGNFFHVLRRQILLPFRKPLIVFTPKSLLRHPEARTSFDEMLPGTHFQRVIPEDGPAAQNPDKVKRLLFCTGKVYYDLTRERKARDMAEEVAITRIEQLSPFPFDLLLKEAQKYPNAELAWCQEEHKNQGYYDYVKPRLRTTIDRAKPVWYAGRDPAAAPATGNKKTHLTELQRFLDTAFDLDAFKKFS
As to the kind of experiment: OADH reaction catalyzed by the enzyme preparation from rat liver, high [OA] (low-affinity OA sites). The class given is biochemical. The note with it: for Amax: low-affinity sites. As for the experimental part: Enzymes catalyzing OGDH and OADH reactions were enriched from rat hearts and livers using polyethylene glycol precipitation, as previously described (Artiukhov et al., [2020]).
The enzyme activities were assayed in the medium (pH 7.0) containing 50 mM MOPS, 1 mM ThDP, 1 mM MgCl2, 1 mM CaCl2, 1 mM dithiothreitol 0.15 mM Coenzyme A, 0.25 mM NAD^+ and various concentrations of 2-oxo substrates (0–10 mM OG or OA) and their phosphonate analogs (0–5,000 μM SP, GP, or AP). Reactions were started by addition of the enzyme preparations to the assay media. The amount of enzyme preparations (0.074 mg protein for the preparation from liver and 0.023 mg protein for the preparation from heart) were chosen to induce the lowest reliably measured reaction rate (ΔA340 = 0.001/min) at 0.01 mM OA without the phosphonates.
Reaction rates were calculated from linear parts of the product accumulation curves (up to 10 min, dependent on the reaction rate), excluding the initial region, where mixing the reagents and solubilization of the preparation affected the optical density.
Non-linear regression was used to approximate the experimental dependences of the reaction rates on the OG or OA concentration according to the Michaelis-Menten equation ( a=Amax*[S]/Km+[S] ) or its sum ( a=Amax*[S]/Km+[S]+Amax,2*[S]/Km,2+[S] ). The former equation describes one type of the active sites. […] The assumption was based on the presence of the two enzymes, OGDH and OADH, in the employed preparations.
The kinetic data were also analyzed by linear regression, using the known methods of the linearization of the Michaelis-Menten equation in the Lineweaver-Burk ( 1/a=1/Amax(1+Km/[S]) ) and Eadie-Hofstee ( a=Amax−Kmv/[S] ) coordinates. Due to the several orders of magnitude difference in the values of Km,1 and Km,2, the linear regression required separate analysis of the dependencies in the intervals of the low and high concentrations of 2-oxoadipate. The Km and Amax values obtained in independent experiments using the non-linear and linear regression analyses of the experimental data, were averaged and presented as Mean ± Standard Error of Mean.
To determine the inhibition constants (Ki), the effective values of Kmeff and Amaxeff , calculated from the hyperbolic or linear approximations as described above, were plotted against the concentration of the inhibitors ([I]). The linear regression of the equation Kmeff/Amaxeff=Km/Amax(1+[I]/Ki) , (Cornish-Bowden, [1979]) was applied to find the Intercept (Km/Amax) and Slope (Km/(Amax*Ki)) of a dependence. The values of Ki were determined as the ratio of the corresponding Intercepts to the Slopes. In the two-site model, the Ki(1) and Ki(2) were calculated separately from the linear approximations of Km,1eff/Amax,1eff vs. [I] and Km,2eff/Amax,2eff vs. [I] dependences, respectively. The standard errors of Ki were determined from means and standard errors of the Intercepts and the Slopes, using the previously described formula for standard deviation of a fraction (Bunik et al., [1999]). The Ki values obtained from the non-linear and linear regression analyses of the experimental data were averaged and presented as Mean ± Standard Error of Mean.

A short description of series [1]: Stability of the phosphonates and their esters during storage, by NMR. The class given is physicochemical. The note with it: trisodium salts. As for the experimental part: Stability of the purified phosphonates and their esterified precursor was analyzed by NMR after storage under the inert (pure argon) or ambient (air) atmosphere and in water solutions. ^1H, ^13C and ^31P NMR spectra were recorded at 400, 100.6, and 161.9 MHz, respectively with a Bruker Avance 400 spectrometer. Chemical shifts were calculated using D2O or CDCl3 as reference standards for trisodium salts and triesters, respectively. The spectra of the phosphonates and their esters before and after storage are shown in Supplementary Figures 1, 2 correspondingly.

Where [2] appears, read: high [OA] 0.1–10 mM, Michaelis-Menten, read-out: Ki, MM.
The mark [3] stands for this setting: high [OA], Eadie-Hofstee, read-out: Ki, EH.
Setting [4] is: high [OA], Lineweaver-Burk, read-out: Ki, LB.
Setting [5] is: high [OA], average, read-out: Ki, Average.

Read-outs that look alike come from different tables or passages of the source.

Turning to `O=C(O)CCCCC(=O)P(=O)(O)O` [AP, adipoyl phosphonate], the Amax on OGDH ([I] 0.5 µM) was 0.0084 ± 0.0002 µmol/min per mg of protein; on OGDH ([I] 2 µM), 0.0085 ± 0.0002 µmol/min per mg of protein; on OGDH ([I] 10 µM), 0.0090 ± 0.0003 µmol/min per mg of protein; at OGDH ([I] 50 µM), 0.0096 ± 0.0002 µmol/min per mg of protein; at OGDH ([I] 200 µM), 0.0097 ± 0.0010 µmol/min per mg of protein. Further, the Ki on OGDH (setting [2]) was determined as 50 ± 2 µM; at OGDH (setting [3]) it was 47 ± 2 µM; at OGDH (setting [4]), 46 ± 2 µM; on OGDH (setting [5]), 47 ± 1 µM. The “stability upon the shelf storage” value in series [1] is “high stability”.

`O=C(O)CCCC(=O)P(=O)(O)O` [GP, glutaryl phosphonate]: the figures for the Amax on OGDH ([I] 2 µM), at OGDH ([I] 10 µM) and at OGDH ([I] 50 µM) were 0.0088 ± 0.0004 µmol/min per mg of protein, 0.0093 ± 0.0005 µmol/min per mg of protein and 0.0056 ± 0.0001 µmol/min per mg of protein, respectively. For the same compound, the Ki worked out at 1.4 ± 0.2 µM at OGDH (setting [2]), 1.3 ± 0.3 µM on OGDH (setting [3]), 1.3 ± 0.3 µM on OGDH (setting [4]) and 1.3 ± 0.2 µM on OGDH (setting [5]). Further, the “stability upon the shelf storage” value in series [1] is listed as “high stability”.

`O=C(O)CCC(=O)P(=O)(O)O` [SP, succinyl phosphonate]: the Amax is given as 0.0080 ± 0.0004 µmol/min per mg of protein at OGDH ([I] 10 µM) and 0.0074 ± 0.0002 µmol/min per mg of protein at OGDH ([I] 50 µM). The Ki on OGDH (setting [2]) worked out at 3.7 ± 0.1 µM; at OGDH (setting [3]), 2.5 ± 0.4 µM; on OGDH (setting [4]) it was 2.1 ± 0.4 µM; on OGDH (setting [5]), 2.8 ± 0.5 µM. Besides, the “stability upon the shelf storage” value in series [1] was “high stability”.
